Calls of active or inactive are those of the source. No cut-off for these calls is given here.
Columns and labels:
MDA-MB-231 [1] = test: Cytotoxicity against human MDA-MB-231 cells assessed as cell growth inhibition after 48 hrs by WST-1 assay; type: functional, cell-based; settings: MDA-MB-231, 48 h
MDA-MB-468 [2] = test: Cytotoxicity against human MDA-MB-468 cells assessed as cell growth inhibition after 48 hrs by WST-1 assay; type: functional, cell-based; settings: MDA-MB-468, 48 h
[3] = Cytotoxicity against human SKBR3 cells overexpressing HER2 assessed as cell growth inhibition after 48 hrs by WST-1 assay; type: functional, cell-based; settings: SK-BR-3, 48 h
MCF7 [4] = test: Cytotoxicity against human MCF7 cells assessed as cell growth inhibition after 48 hrs by WST-1 assay; type: functional, cell-based; settings: MCF7, 48 h
SK-BR-3 [5] = test: Decrease in ALDH activity in human SKBR3 cells overexpressing HER2 assessed as reduction in ALDH-positive population at 30 uM after 72 hrs by Aldefluor assay; type: functional
SK-BR-3 [6] = test: Decrease in ALDH activity in human SKBR3 cells overexpressing HER2 assessed as ALDH-positive population by flow cytometry in presence of ALDH inhibitor DEAB (reference value: 0.7%); type: functional; set-up: scale not given: the % may be the effect or the level left
SK-BR-3 [7] = test: Decrease in ALDH activity in human SKBR3 cells overexpressing HER2 assessed as ALDH-positive population by flow cytometry in absence of ALDH inhibitor DEAB (reference value: 20%); type: functional; set-up: scale not given: the % may be the effect or the level left
[8] = Decrease in HER2 expression in human SKBR3 cells overexpressing HER2 by immunohistochemistry staining; type: functional, cell-based; settings: SK-BR-3
SK-BR-3 [9] = test: Inhibition of cell migration in human SKBR3 cells overexpressing HER2 at 25 uM after 8 hrs by microtiter plate reader analysis; type: functional; settings: SK-BR-3, 8 h
MDA-MB-231 [10] = test: Inhibition of cell migration in human MDA-MB-231 cells at 25 uM after 8 hrs by microtiter plate reader analysis; type: functional; settings: MDA-MB-231, 8 h
MCF7 [11] = test: Inhibition of cell migration in human MCF7 cells at 25 uM after 8 hrs by microtiter plate reader analysis; type: functional; settings: MCF7, 8 h
SK-BR-3 [12] = test: Inhibition of cell adhesion in human SKBR3 cells overexpressing HER2 at 25 uM after 30 to 90 mins by microtiter plate reader analysis; type: functional
MDA-MB-231 [13] = test: Inhibition of cell adhesion in human MDA-MB-231 cells at 25 uM after 30 to 90 mins by microtiter plate reader analysis; type: functional
MCF7 [14] = test: Inhibition of cell adhesion in human MCF7 cells at 25 uM after 30 to 90 mins by microtiter plate reader analysis; type: functional
MDA-MB-468 [15] = test: Cytotoxicity against human MDA-MB-468 cells assessed as cell growth inhibition at 300 uM after 48 hrs by WST-1 assay; type: functional, cell-based
MCF7 [16] = test: Cytotoxicity against human MCF7 cells assessed as cell growth inhibition at 300 uM after 48 hrs by WST-1 assay; type: functional, cell-based
MDA-MB-231 [17] = test: Cytotoxicity against human MDA-MB-231 cells assessed as cell growth inhibition at 300 uM after 48 hrs by WST-1 assay; type: functional, cell-based

SMILES	IC50 (MDA-MB-231 [1]) [µM]	IC50 (MDA-MB-468 [2]) [µM]	IC50 [3] [µM]	IC50 (MCF7 [4]) [µM]	inhibition [8]	inhibition (MDA-MB-468 [15])	inhibition (MCF7 [16])	further results
COc1cccc(/C=N\NC(=S)NC2CCCCC2)c1	88.9	46.7	30.9	49.9	Active			inhibition at 30 µM (SK-BR-3 [5]; SK-BR-3, 72 h): 50%; Activity (SK-BR-3 [6]): 0.7%; Activity (SK-BR-3 [7]): 9.5%; inhibition at 25 µM (SK-BR-3 [9]): 46.7%; inhibition at 25 µM (MDA-MB-231 [10]): 31.4%; inhibition at 25 µM (MCF7 [11]): 32.4%; inhibition at 25 µM (SK-BR-3 [12]): 45.6%; inhibition at 25 µM (MDA-MB-231 [13]): 32.3%; inhibition at 25 µM (MCF7 [14]): 15.9%
O=[N+]([O-])c1cccc(/C=N\NC(=S)NC2CCCCC2)c1	84.8		34.6			inactive	inactive	
S=C(N/N=C\c1ccc(Cl)cc1)NC1CCCCC1	38.3	41.6	32.2	91.4				
Oc1ccc(/C=N\NC(=S)NC2CCCCC2)c(O)c1	56.6	44.6	27.7	105				
O=[N+]([O-])c1ccc(/C=N\NC(=S)NC2CCCCC2)cc1			41			inactive	inactive	inhibition (MDA-MB-231 [17]): inactive
S=C(N/N=C\c1ccco1)NC1CCCCC1	141		45.7			inactive	inactive	
O=[N+]([O-])c1ccccc1/C=N\NC(=S)NC1CCCCC1	118		46.5			inactive	inactive	
S=C(N/N=C\c1cccs1)NC1CCCCC1	58.6	337	30.4	49.8	Active			inhibition (SK-BR-3 [5]): Active
O=c1[nH]cc(F)c(=O)[nH]1 [FLUOROURACIL]	77.3		38.9	34.5				
CN(C)c1ccc(/C=N\NC(=S)NC2CCCCC2)cc1	125	280	31.2	51.1				
CC[C@@H](C(=O)[C@@H](C)[C@@H](O)[C@H](C)[C@@H]1O[C@@H]([C@@H](CC)C(=O)O)CC[C@@H]1C)[C@H]1O[C@]2(C=C[C@@H](O)[C@]3(CC[C@@](C)([C@H]4CC[C@](O)(CC)[C@H](C)O4)O3)O2)[C@H](C)C[C@@H]1C [SALINOMYCIN]								Activity (SK-BR-3 [6]): 0.6%; Activity (SK-BR-3 [7]): 30%
Oc1ccc(/C=N\NC(=S)NC2CCCCC2)cc1	115	242	29.9	50.4	Active			inhibition (SK-BR-3 [5]): Active
Oc1cccc(/C=N\NC(=S)NC2CCCCC2)c1	24.5	32.2	25.6		Active		inactive	inhibition (SK-BR-3 [5]): Active
S=C(N/N=C\c1ccc2c(c1)OCO2)NC1CCCCC1			61.6			inactive	inactive	inhibition (MDA-MB-231 [17]): inactive
COc1ccc(/C=N\NC(=S)NC2CCCCC2)cc1OC			47.9	99.2		inactive		inhibition (MDA-MB-231 [17]): inactive
CCOc1ccc(/C=N\NC(=S)NC2CCCCC2)cc1	68.2	252	29.9	166	Active			inhibition (SK-BR-3 [5]): Active; Activity (SK-BR-3 [6]): 0.7%; Activity (SK-BR-3 [7]): 11.1%

Reference: ChEMBL document CHEMBL3580638, “Targeting HER-2 over expressed breast cancer cells with 2-cyclohexyl-N-[(Z)-(substituted phenyl/furan-2-yl/thiophene-2-yl)methylidene]hydrazinecarbothioamide” (Bioorg Med Chem Lett, 2014)
